From patent US10233191B2, “Fused piperidine amides as modulators of ion channels” (Vertex Pharmaceuticals Incorporated, priority 2013, dated 2019)

Target: T1, NaV 1.7 (Homo sapiens, UniProt Q15858)
T1 construct: expressed in transfected cells; host or cells: HEK cells
Assay: E-VIPR optical membrane potential assay with electrical stimulation
Type: cell-based
Settings: active against one or more sodium channels; assay/subtype not specified in Table 4; read-out: IC50 Binned Activity Data
Excerpt: E-VIPR Optical Membrane Potential Assay Method with Electrical Stimulation
Sodium channels are voltage-dependent proteins that can be activated by inducing membrane voltage changes by applying electric fields. The electrical stimulation instrument and methods of use are described in Ion Channel Assay Methods PCT/US01/21652, herein incorporated by reference and are referred to as E-VIPR. The instrument comprises a microtiter plate handler, an optical system for exciting the coumarin dye while simultaneously recording the coumarin and oxonol emissions, a waveform generator, a current- or voltage-controlled amplifier, and a device for inserting electrodes in well. Under integrated computer control, this instrument passes user-programmed electrical stimulus protocols to cells within the wells of the microtiter plate.
24 hours before the assay on E-VIPR, HEK cells expressing human NaV subtype, like NaV 1.7, are seeded in 384-well poly-lysine coated plates at 15,000-20,000 cells per well. Other subtypes are performed in an analogous mode in a cell line expressing the NaV of interest. HEK cells are grown in media (exact composition is specific to each cell type and NaV subtype) supplemented with 10% FBS (Fetal Bovine Serum, qualified; GibcoBRL #16140-071) and 1% Pen-Strep (Penicillin-Streptomycin; GibcoBRL #15140-122). Cells are grown in vented cap flasks, in 90% humidity and 10% CO2, to 100% confluence. They are usually split by trypsinization 1:10 or 1:20, depending on scheduling needs, and grown for 2-3 days before the next split.
• 100 mg/mL Pluronic F-127 (Sigma #P2443), in dry DMSO • Compound Plates: 384-well round bottom plate, e.g. Corning 384-well Polypropylene Round Bottom #3656 • Cell Plates: 384-well tissue culture treated plate, e.g. Greiner #781091-1B • 10 mM DiSBAC6(3) (Aurora #00-100-010) in dry DMSO • 10 mM CC2-DMPE (Aurora #00-100-008) in dry DMSO • 200 mM ABSC1 in H2O
Bath1 buffer. Glucose 10 mM (1.8 g/L), Magnesium Chloride (Anhydrous), 1 mM (0.095 g/L), Calcium Chloride, 2 mM (0.222 g/L), HEPES 10 mM (2.38 g/L), Potassium Chloride, 4.5 mM (0.335 g/L), Sodium Chloride 160 mM (9.35 g/L).
Hexyl Dye Solution: Bath1 Buffer+0.5% β-cyclodextrin (make this prior to use, Sigma #C4767), 8 μM CC2-DMPE+2.5 μM DiSBAC6(3). To make the solution Add volume of 10% Pluronic F127 stock equal to volumes of CC2-DMPE+DiSBAC6(3). The order of preparation is first mix Pluronic and CC2-DMPE, then add DiSBAC6(3) while vortexing, then add Bath1+β-Cyclodextrin.
1) Pre-spot compounds (in neat DMSO) into compound plates. Vehicle control (neat DMSO), the positive control (20 mM DMSO stock tetracaine, 125 μM final in assay) and test compounds are added to each well at 160× desired final concentration in neat DMSO. Final compound plate volume will be 80 μL (80-fold intermediate dilution from 1 μL DMSO spot; 160-fold final dilution after transfer to cell plate). Final DMSO concentration for all wells in assay is 0.625%.
2) Prepare Hexyl Dye Solution.
3) Prepare cell plates. On the day of the assay, medium is aspirated and cells are washed three times with 100 μL of Bath1 Solution, maintaining 25 μL residual volume in each well.
4) Dispense 25 μL per well of Hexyl Dye Solution into cell plates. Incubate for 20-35 minutes at room temp or ambient conditions.
5) Dispense 80 μL per well of Bath1 into compound plates. Acid Yellow-17 (1 mM) is added and Potassium Chloride can be altered from 4.5 to 20 mM depending on the NaV subtype and assay sensitivity.
6) Wash cell plates three times with 100 μL per well of Bath1, leaving 25 μL of residual volume. Then transfer 25 uL per well from Compound Plates to Cell Plates. Incubate for 20-35 minutes at room temp/ambient condition
7) Read Plate on E-VIPR. Use the current-controlled amplifier to deliver stimulation wave pulses for typically 9 seconds and a scan rate of 400 Hz. A pre-stimulus recording is performed for 0.5 seconds to obtain the un-stimulated intensities baseline. […]

T1 sequence (Q15858 whole entry): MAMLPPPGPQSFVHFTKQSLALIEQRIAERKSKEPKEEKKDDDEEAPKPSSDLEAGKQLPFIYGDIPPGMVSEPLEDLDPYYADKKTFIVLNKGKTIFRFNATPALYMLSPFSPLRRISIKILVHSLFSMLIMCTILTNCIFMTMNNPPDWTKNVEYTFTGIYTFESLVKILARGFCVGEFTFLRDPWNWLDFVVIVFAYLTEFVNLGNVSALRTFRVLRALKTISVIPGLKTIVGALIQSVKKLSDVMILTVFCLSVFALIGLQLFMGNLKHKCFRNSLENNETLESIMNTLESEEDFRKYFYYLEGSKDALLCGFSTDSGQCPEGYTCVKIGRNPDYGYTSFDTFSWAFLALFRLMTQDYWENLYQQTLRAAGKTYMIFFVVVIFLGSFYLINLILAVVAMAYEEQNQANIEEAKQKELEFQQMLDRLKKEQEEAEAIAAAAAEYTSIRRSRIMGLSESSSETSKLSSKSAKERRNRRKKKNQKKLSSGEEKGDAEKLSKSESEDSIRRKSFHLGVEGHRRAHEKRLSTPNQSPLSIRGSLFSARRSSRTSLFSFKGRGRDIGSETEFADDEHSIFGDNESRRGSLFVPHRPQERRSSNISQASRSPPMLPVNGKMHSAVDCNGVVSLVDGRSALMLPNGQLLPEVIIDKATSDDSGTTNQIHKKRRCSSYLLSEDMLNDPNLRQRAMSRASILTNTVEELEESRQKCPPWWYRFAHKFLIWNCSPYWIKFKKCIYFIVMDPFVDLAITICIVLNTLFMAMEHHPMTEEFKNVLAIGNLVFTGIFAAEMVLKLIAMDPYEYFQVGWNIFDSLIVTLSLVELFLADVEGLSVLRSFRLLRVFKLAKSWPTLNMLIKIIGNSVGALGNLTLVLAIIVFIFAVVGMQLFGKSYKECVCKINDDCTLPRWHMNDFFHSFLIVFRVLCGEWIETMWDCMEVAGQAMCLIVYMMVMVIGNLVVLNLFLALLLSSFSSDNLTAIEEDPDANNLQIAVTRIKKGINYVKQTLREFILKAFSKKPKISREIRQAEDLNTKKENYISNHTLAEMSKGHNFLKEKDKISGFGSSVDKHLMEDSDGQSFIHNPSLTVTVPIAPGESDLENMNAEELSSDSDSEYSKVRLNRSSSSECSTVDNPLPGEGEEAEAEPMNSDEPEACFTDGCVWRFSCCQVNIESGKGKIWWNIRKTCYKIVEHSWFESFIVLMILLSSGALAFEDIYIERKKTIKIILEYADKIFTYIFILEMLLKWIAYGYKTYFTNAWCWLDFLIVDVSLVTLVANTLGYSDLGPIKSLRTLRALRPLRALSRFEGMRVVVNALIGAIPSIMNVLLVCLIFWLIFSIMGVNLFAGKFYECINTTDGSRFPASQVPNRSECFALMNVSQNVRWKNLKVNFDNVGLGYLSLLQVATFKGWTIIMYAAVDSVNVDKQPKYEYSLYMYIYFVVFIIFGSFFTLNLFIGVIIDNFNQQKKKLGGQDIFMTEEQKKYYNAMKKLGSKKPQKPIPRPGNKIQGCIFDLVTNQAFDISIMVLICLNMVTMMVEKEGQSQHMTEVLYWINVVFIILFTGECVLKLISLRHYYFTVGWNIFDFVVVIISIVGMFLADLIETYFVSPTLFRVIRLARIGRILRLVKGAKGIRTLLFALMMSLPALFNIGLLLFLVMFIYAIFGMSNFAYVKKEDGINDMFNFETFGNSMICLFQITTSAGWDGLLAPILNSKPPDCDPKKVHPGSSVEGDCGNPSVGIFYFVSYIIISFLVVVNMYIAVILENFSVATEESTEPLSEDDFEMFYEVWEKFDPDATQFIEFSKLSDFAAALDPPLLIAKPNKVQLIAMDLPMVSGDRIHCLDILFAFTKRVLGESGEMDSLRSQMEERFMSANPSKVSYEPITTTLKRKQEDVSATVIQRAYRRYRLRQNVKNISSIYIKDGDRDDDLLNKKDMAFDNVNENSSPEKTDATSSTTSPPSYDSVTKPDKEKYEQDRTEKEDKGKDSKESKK

Row | SMILES | IC50
1 | COc1cc(C(=O)N2CC[C@]3(c4ncccc4F)OCOC3C2)ccc1OCC1CC(F)(F)C1 (stereo partly drawn) [Compound 1] | ≤ 2000 nM
2 | Cc1cc(C(=O)N2CC[C@]3(c4cc(C(F)(F)F)ccn4)OCOC3C2)ccc1OCC(C)(C)F (stereo partly drawn) [Compound 2] | ≤ 2000 nM
3 | COc1ccnc([C@]23CCN(C(=O)c4ccc(OCC(F)(F)C(F)F)c(OC)c4)CC2OCO3)c1 (stereo partly drawn) [Compound 3] | ≤ 2000 nM
4 | COc1cc(C(=O)N2CC[C@]3(c4cc(F)cc(F)c4)OCOC3C2)ccc1OCCOC(F)(F)F (stereo partly drawn) [Compound 4] | ≤ 2000 nM
5 | Cc1cc(C(=O)N2CC[C@]3(c4ncccn4)OCOC3C2)ccc1OC(C)C (stereo partly drawn) [Compound 5] | > 5000 nM
6 | COc1cc(C(=O)N2CC[C@@]3(c4nccs4)OCOC3C2)ccc1OCC(C)(C)F (stereo partly drawn) [Compound 6] | > 5000 nM
7 | COc1cc(C(=O)N2CC[C@]3(c4ncccn4)OCOC3C2)ccc1OCC(C)(C)F (stereo partly drawn) [Compound 7] | > 5000 nM
8 | COc1cc(C(=O)N2CC[C@@]3(c4ccccc4)OCOC3C2)ccc1OCC(C)(C)O (stereo partly drawn) [Compound 8] | > 5000 nM
9 | O=C(c1ccc(O)c(Cl)c1)N1CC[C@]2(c3ccccn3)OCOC2C1 (stereo partly drawn) [Compound 9] | > 5000 nM
10 | CC(C)Oc1ccc(C(=O)N2CCC3(c4ccccc4)CC3C2)cn1 (stereo not drawn) [Compound 10] | > 5000 nM
11 | COc1c(F)cccc1C(=O)N1CCC2(c3ccccc3)CC2C1 (stereo not drawn) [Compound 11] | > 5000 nM
12 | COc1cc(C(=O)N2CC[C@]3(c4ncccn4)OCOC3C2)ccc1OCCOC(F)(F)F (stereo partly drawn) [Compound 12] | > 5000 nM
13 | Cc1cc(C(=O)N2CCC3(c4ccccc4)OCC3C2)ccc1OC(C)C (stereo not drawn) [Compound 13] | > 5000 nM
14 | COc1ccc(C(=O)N2CCC3(c4ccccc4)CC3C2)nc1C (stereo not drawn) [Compound 14] | 2000 to 5000 nM
15 | CCS(=O)(=O)c1ccc(C(=O)N2CCC3(c4ccccc4)CC3C2)cc1C (stereo not drawn) [Compound 15] | 2000 to 5000 nM
16 | CC(C)Oc1ccc(C(=O)N2CCC3(c4ccccc4)CC3C2)cc1F (stereo not drawn) [Compound 16] | 2000 to 5000 nM
17 | CC(C)(O)COc1ccc(C(=O)N2CC[C@@]3(c4nccs4)OCOC3C2)cc1Cl (stereo partly drawn) [Compound 17] | 2000 to 5000 nM
18 | Cc1cc(C(=O)N2CCC3(c4ccccc4)CC3C2)cnc1OC(C)C (stereo not drawn) [Compound 18] | 2000 to 5000 nM
19 | CC(C)Oc1ccc(C(=O)N2CCC3(c4ccccc4)CC3C2)c(F)c1 (stereo not drawn) [Compound 19] | 2000 to 5000 nM

Row | SMILES | IC50
20 | O=C(c1cccc2c1OCC2)N1CCC2(c3ccccc3)CC2C1 (stereo not drawn) [Compound 20] | 2000 to 5000 nM
21 | CC(C)COc1ccc(C(=O)N2CCC3(c4ccccc4)CC3C2)nc1 (stereo not drawn) [Compound 21] | 2000 to 5000 nM
22 | CC(C)(O)COc1ccc(C(=O)N2CC[C@]3(c4nccs4)OCOC3C2)cc1Cl (stereo partly drawn) [Compound 22] | 2000 to 5000 nM
23 | COc1cc(C(=O)N2CC[C@]3(c4ccccn4)OCOC3C2)ccc1OCC(C)(C)F (stereo partly drawn) [Compound 23] | 2000 to 5000 nM
24 | COc1cc(C(=O)N2CC[C@]3(c4nccs4)OCOC3C2)ccc1OCC(C)(C)F (stereo partly drawn) [Compound 24] | 2000 to 5000 nM
25 | Cc1cc(C(=O)N2CC[C@]3(c4ccccn4)OCOC3C2)ccc1OCC(C)(C)O (stereo partly drawn) [Compound 25] | 2000 to 5000 nM
26 | O=C(c1ccc(S(=O)(=O)NC2CC2)cc1)N1CCC2(c3ccccc3)CC2C1 (stereo not drawn) [Compound 26] | 2000 to 5000 nM
27 | Cc1cc(C(=O)N2CC[C@]3(c4ncccn4)OCOC3C2)ccc1OCC(C)(C)F (stereo partly drawn) [Compound 27] | ≤ 2000 nM
28 | O=C(c1ccc(C2(O)CCC2)cc1)N1CCC2(c3ccccc3)CC2C1 (stereo not drawn) [Compound 28] | ≤ 2000 nM
29 | CC(C)(O)c1ccc(C(=O)N2CCC3(c4ccccc4)CC3C2)cc1 (stereo not drawn) [Compound 29] | ≤ 2000 nM
30 | Cc1cc(C(=O)N2CC[C@@]3(c4nccs4)OCOC3C2)ccc1OCC(C)(C)O (stereo partly drawn) [Compound 30] | ≤ 2000 nM
31 | Cc1cc(C(=O)N2CC[C@]3(c4nccs4)OCOC3C2)ccc1OCC(C)(C)O (stereo partly drawn) [Compound 31] | ≤ 2000 nM
32 | COc1cc(C(=O)N2CC[C@]3(c4ccc(F)cc4)OCOC3C2)ccc1COCCC(F)(F)F (stereo partly drawn) [Compound 32] | ≤ 2000 nM
33 | O=C(c1cccc2cccnc12)N1CCC2(c3ccccc3)OCC2C1 (stereo not drawn) [Compound 33] | ≤ 2000 nM
34 | COc1cccnc1[C@]12CCN(C(=O)c3ccc(OCC(C)(C)F)c(C)c3)CC1OCO2 (stereo partly drawn) [Compound 34] | ≤ 2000 nM
35 | CC(C)Oc1ccc(C(=O)N2CCC3(c4ccccc4)CC3C2)cc1C#N (stereo not drawn) [Compound 35] | ≤ 2000 nM
36 | COc1cc(C(=O)N2CC[C@@]3(c4ccccc4)OCOC3C2)ccc1OCC(C)(C)F (stereo partly drawn) [Compound 36] | ≤ 2000 nM
37 | CC(C)(O)Cc1ccc(C(=O)N2CCC3(c4ccccc4)CC3C2)cc1F (stereo not drawn) [Compound 37] | ≤ 2000 nM
38 | COc1cc(C(=O)N2CC[C@]3(c4ccc(F)cc4)OCOC3C2)ccc1OCC(C)(C)F (stereo partly drawn) [Compound 38] | ≤ 2000 nM

Row | SMILES | IC50
39 | COc1cc(C(=O)N2CC[C@]3(c4cscn4)OCOC3C2)ccc1OCCOC(F)(F)F (stereo partly drawn) [Compound 39] | > 5000 nM
40 | COc1cc(C(=O)N2CC[C@]3(c4ccccn4)OCOC3C2)cc(F)c1OCCC(F)(F)F (stereo partly drawn) [Compound 40] | ≤ 2000 nM
41 | COc1cc(C(=O)N2CC[C@]3(c4ncccc4OC)OCOC3C2)ccc1OCCOC(F)(F)F (stereo partly drawn) [Compound 41] | ≤ 2000 nM
42 | COc1cc(C(=O)N2CC[C@]3(c4ccccc4)OCOC3C2)ccc1OCC(C)(C)O (stereo partly drawn) [Compound 42] | ≤ 2000 nM
43 | O=C(c1cccc2cccnc12)N1CC[C@@]2(c3ccccc3)OCOC2C1 (stereo partly drawn) [Compound 43] | 2000 to 5000 nM
44 | Cc1cc(C(=O)N2CCC3(c4ccc(F)cc4)CC3C2)ccc1OCC(C)(C)O (stereo not drawn) [Compound 44] | ≤ 2000 nM
45 | Cc1cc(C(=O)N2CC[C@]3(c4ccccc4)OCOC3C2)ccc1C(C)(C)O (stereo partly drawn) [Compound 45] | ≤ 2000 nM
46 | COc1cc(C(=O)N2CC[C@@]3(c4ccn(C)n4)OCOC3C2)ccc1OCCOC(F)(F)F (stereo partly drawn) [Compound 46] | ≤ 2000 nM
47 | COc1cc(C(=O)N2CC[C@@]3(c4ccc(F)cc4)OCOC3C2)ccc1OCC(C)(C)F (stereo partly drawn) [Compound 47] | ≤ 2000 nM
48 | COc1cc(C(=O)N2CC[C@@]3(c4ccc(F)cc4)OCOC3C2)ccc1COCCC(F)(F)F (stereo partly drawn) [Compound 48] | ≤ 2000 nM
49 | Cc1cc(C(=O)N2CC[C@@]3(c4ccccc4)OCOC3C2)ccc1C(C)(C)O (stereo partly drawn) [Compound 49] | > 5000 nM
50 | COc1cc(C(=O)N2CC[C@]3(c4ccccn4)OCOC3C2)ccc1COCC(F)(F)F (stereo partly drawn) [Compound 50] | ≤ 2000 nM
51 | O=C(c1ccc2c(c1)OCC(COC(F)(F)F)O2)N1CC[C@]2(c3ccccc3)OCOC2C1 (stereo partly drawn) [Compound 51] | 2000 to 5000 nM
52 | Cc1cc(C(=O)N2CC[C@]3(c4cscn4)OCOC3C2)ccc1OCC(C)(C)F (stereo partly drawn) [Compound 52] | 2000 to 5000 nM
53 | Cc1cc(C(=O)N2CC[C@]3(c4ccc(F)cc4)OCOC3C2)ccc1OCC(C)(C)O (stereo partly drawn) [Compound 53] | ≤ 2000 nM
54 | O=C(c1ccc2c(c1)OCC(COC(F)(F)F)O2)N1CC[C@@]2(c3ccccc3)OCOC2C1 (stereo partly drawn) [Compound 54] | ≤ 2000 nM
55 | COc1cc(C(=O)N2CCC3(c4ccccc4)OCC3C2)ccc1OCCOC(F)(F)F (stereo not drawn) [Compound 55] | ≤ 2000 nM
56 | Cc1nc(C(=O)N2CCC3(c4ccccc4)OCC3C2)ccc1OC(C)C (stereo not drawn) [Compound 56] | ≤ 2000 nM
57 | CC(C)(O)c1ccc(C(=O)N2CCC3(c4ccccc4)CC3C2)cc1F (stereo not drawn) [Compound 57] | > 5000 nM
